Experimental data: PMC4978154, “Phase I metabolites of mephedrone display biological activity as substrates at monoamine transporters” (British Journal of Pharmacology, 2016)
Where two headings read alike, the source gives them in different places.

Assays:
hSERT = molecular target: T1, hSERT (Homo sapiens, UniProt P31645); experiment: Transporter uptake inhibition in HEK293 cells expressing hSERT; type: cell-based; settings: [3H]-5-HT uptake; for IC50: mean (95% confidence interval)
T1 construct: yellow fluorescent protein (YFP); expressed in transfected cells
T1 sequence (P31645 whole entry): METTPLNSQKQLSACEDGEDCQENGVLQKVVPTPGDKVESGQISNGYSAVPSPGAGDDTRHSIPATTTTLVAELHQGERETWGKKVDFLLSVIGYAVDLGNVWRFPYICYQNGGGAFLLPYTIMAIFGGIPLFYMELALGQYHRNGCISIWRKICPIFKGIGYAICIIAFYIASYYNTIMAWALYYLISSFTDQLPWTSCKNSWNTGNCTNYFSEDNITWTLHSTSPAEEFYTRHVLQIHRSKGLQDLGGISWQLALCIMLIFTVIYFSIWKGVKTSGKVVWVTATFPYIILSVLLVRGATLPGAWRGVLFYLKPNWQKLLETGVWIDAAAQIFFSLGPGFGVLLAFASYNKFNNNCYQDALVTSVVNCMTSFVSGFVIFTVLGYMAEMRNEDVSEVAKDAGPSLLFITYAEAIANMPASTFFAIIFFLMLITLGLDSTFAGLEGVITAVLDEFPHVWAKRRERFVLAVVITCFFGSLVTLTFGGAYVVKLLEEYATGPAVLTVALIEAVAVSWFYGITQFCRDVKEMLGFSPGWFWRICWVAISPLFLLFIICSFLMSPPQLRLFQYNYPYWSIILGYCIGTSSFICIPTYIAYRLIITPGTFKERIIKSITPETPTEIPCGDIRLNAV
Procedure: The generation of HEK293 cells stably expressing the human isoforms of DAT (hDAT) and NET (hNET) was carried out as described previously (Scholze et al., 2002). For SERT, the human isoform (hSERT) was cloned in frame with yellow fluorescent protein (Schmid et al., 2001). The generation of a stable cell line was performed as described by Hilber and colleagues (Hilber et al., 2005). HEK293 cells were maintained in humidified atmosphere (5% CO2, 37°C) in DMEM, supplemented with 10% heat‐inactivated FBS and penicillin (100 u 100 mL^−1) and streptomycin (100 μg 100 mL^−1). Selection pressure was maintained by adding geneticin (50 μg·mL^−1) to the cell culture media.
Uptake experiments were conducted as described previously (Sitte et al., 2001) with minor modifications. In brief, HEK293 cells expressing hDAT, hNET or hSERT were seeded into poly‐D‐lysine (PDL) coated 96‐well plates at a density of 40 000 cells per well. The next day, DMEM was aspirated and replaced with Krebs HEPES buffer (KHB, 25 mM HEPES, 120 mM NaCl, 5 mM KCl, 1.2 mM CaCl2, and 1.2 mM MgSO4, 5 mM D‐glucose, pH adjusted to 7.3 with NaOH) (200 μL per well), and cells were pre‐incubated with various concentrations of mephedrone or its metabolites for 5 min (50 μL per well). Subsequently, 0.1 μM of [^3H]‐5‐HT or 0.02 μM of [^3H]‐MPP^+ were added, and uptake was terminated after 1 (hSERT) or 3 min (hDAT, hNET) by washing the cells with 200 μL of ice‐cold KHB. Cells were lysed with 1% SDS, and tritium uptake was determined by scintillation counting. Nonspecific uptake was determined in the presence of 10 μM paroxetine (hSERT) or 10 μM mazindol (hDAT and hNET).
(§1) Calculations were performed using Microsoft Excel® 2010 (Microsoft Corporation, Redmond, WA, USA) and GRAPHPAD PRISM 5.0. (GraphPad Software Inc., La Jolla, CA, USA). IC50 values for uptake inhibition and EC50 values for release were determined by nonlinear regression fits. Release data expressed as AUC were analysed by one‐way ANOVA followed by Bonferroni's multiple comparison test. Microdialysis and locomotor data were analysed by two‐way ANOVA (drug treatment × time) followed by Bonferroni's test. The effect of monensin treatment on basal efflux of tritiated substrate was analysed with the Mann–Whitney test. P values less than 0.05 (i.e. P < 0.05) were considered significant. The data and statistical analysis comply with the recommendations on experimental design and analysis in pharmacology (Curtis et al., 2015).

DAT = molecular target: T2, DAT (Rattus norvegicus, UniProt P23977); experiment: Transporter release assay in rat brain synaptosomes, DAT; type: biochemical; settings: [3H]-MPP+, mean (95% confidence interval)
T2 construct: a native tissue preparation that contains plasma membrane transporters in situ; from tissue; host or cells: rat striatum synaptosomes
T2 sequence (P23977 whole entry): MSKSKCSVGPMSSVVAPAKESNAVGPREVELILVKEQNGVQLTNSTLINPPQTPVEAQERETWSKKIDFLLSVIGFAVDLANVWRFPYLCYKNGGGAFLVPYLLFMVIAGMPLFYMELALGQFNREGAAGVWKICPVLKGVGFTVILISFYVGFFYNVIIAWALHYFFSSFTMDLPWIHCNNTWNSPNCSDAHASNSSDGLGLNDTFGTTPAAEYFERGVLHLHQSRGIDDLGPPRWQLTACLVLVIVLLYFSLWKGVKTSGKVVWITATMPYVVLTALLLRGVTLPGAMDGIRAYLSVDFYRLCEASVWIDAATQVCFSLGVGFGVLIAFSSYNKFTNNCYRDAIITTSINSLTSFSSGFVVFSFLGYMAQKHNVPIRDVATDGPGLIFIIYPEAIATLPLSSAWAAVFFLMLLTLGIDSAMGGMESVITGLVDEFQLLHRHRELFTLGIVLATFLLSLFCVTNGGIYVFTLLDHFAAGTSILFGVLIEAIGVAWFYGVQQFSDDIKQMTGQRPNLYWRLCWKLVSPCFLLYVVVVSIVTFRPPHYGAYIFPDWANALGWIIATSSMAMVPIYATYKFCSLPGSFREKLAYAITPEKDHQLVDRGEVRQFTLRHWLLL
Procedure: The ability of mephedrone and its metabolites to evoke release via DAT, NET and SERT was determined in rat brain synaptosomes as previously described (Baumann et al., 2012). Rats were killed with CO2, decapitated, and brains were rapidly removed and dissected on ice. Synaptosomes were prepared from striatum for DAT assays, whereas synaptosomes were prepared from whole brain minus striatum and cerebellum for the NET and SERT assays. [^3H]‐MPP^+ (9 nM) was used as the radiolabelled substrate for DAT and NET, whereas [^3H]‐5‐HT (5 nM) was used as the radiolabelled substrate for SERT. All buffers used in the release assays contained 1 μM reserpine to block vesicular uptake of substrates. The selectivity of assays was optimized for a single transporter by including unlabelled compounds [nomifensine and 1‐(2‐diphenylmethoxyethyl)‐4‐(3‐phenylpropyl)piperazine dihydrochloride (GBR12935) for SERT; GBR12935 and citalopram for NET; citalopram and desipramine for DAT] to prevent the uptake of [^3H]‐MPP^+ or [^3H]‐5‐HT by competing transporters. Synaptosomes were preloaded with radiolabelled substrate in Krebs‐phosphate buffer, which consisted of 126 mM NaCl, 2.4 mM KCl, 0.5 mM KH2PO4, 1.1 mM CaCl2, 0.83 mM MgCl2, 0.5 mM Na2SO4, 11.1 mM glucose, 13.7 mM Na2HPO4, 1 mg·mL^−1 ascorbic acid and 50 μM pargyline (pH = 7.4) for 1 h (steady state). […] Assays were terminated by vacuum filtration, and retained radioactivity was quantified by liquid scintillation counting.
as §1, with “(GraphPad Software Inc., La Jolla, CA, USA).” left out, “P values less than 0.05 (i.e. P < 0.05) were considered significant. The data and statistical analysis comply with the recommendations on experimental design and analysis in pharmacology (Curtis et al., 2015).” left out

[1] = IC50 on uptake mediated by hSERT
[2] = EC50 on transporter mediated efflux, DAT

| SMILES | efficacy of uptake inhibition at hSERT (hSERT) | IC50 (hSERT; read-out: IC50 on uptake mediated by hSERT) [µM] | EC50 (DAT; read-out: EC50 on transporter mediated efflux, DAT) [µM] | IC50 (hSERT; [1]) [µM] | EC50 (DAT; [2]) [µM] |
| --- | --- | --- | --- | --- | --- |
| CNC(C)C(=O)c1ccc(CO)cc1.Cl (stereo not drawn) [4‐OH‐mephedrone, 1‐(4‐(hydroxymethyl)phenyl)‐2‐(methylamino)propan‐1‐one hydrochloride] | fully efficacious inhibitors of uptake | 73.5 | 0.19 | – | – |
| CNC(C)C(=O)c1ccc(C)cc1.Cl (stereo not drawn) [Mephedrone, 2‐Methylamino‐1‐(p‐tolyl)propan‐1‐one hydrochloride] | fully efficacious inhibitors of uptake | – | – | 7.83 | 0.052 |
| Cc1ccc(C(=O)C(C)N)cc1.Cl (stereo not drawn) [Nor‐mephedrone, 2‐amino‐1‐(p‐tolyl)propan‐1‐one hydrochloride] | fully efficacious inhibitors of uptake | – | – | 10.6 | 0.22 |
